Experimental findings from US10815222B2, “Compounds for use in the treatment of kinetoplastid infection” (C.N.C.C.S. S.c.a.r.l. COLLEZIONE NAZIONALE DEI COMPOSTI …, priority 2016, dated 2020) are described below.

A value given as a limit tells only on which side of the number the result lay.

One assay relates to Bloodstream form of Trypanosoma brucei, strain Lister 427. In words: Trypanosoma brucei growth inhibition assay (CellTiter-Glo, 24 h). The class given is cell-based. The note with it: T. Brucei Growth Inibition Assay, class symbols; read-out: T. Brucei GI EC50. The method, boiled down:
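Bloodstream-form T. brucei Lister 427, 1500 parasites per well in supplemented IMDM with 10% FBS, were exposed to compound (DMSO ≤0.25% final) for 24 h at 37 °C. Viability was measured by CellTiter-Glo luminescence.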
For orientation: In ATP-based viability assays light output follows the ATP content of the culture.
On to `COc1nc2ccccc2cc1-c1cnc(C2CN(CC3CCOC3)CCN2C(=O)CCc2n[nH]c3c2CCCC3)[nH]1` (centres unmarked), for which the EC50 (usually the concentration at which the effect is half-maximal) was in the range of 1010 to 5000 nM.

Still in this assay, the particulars now being: Trypanosoma brucei; T. Brucei Growth Inibition Assay, class symbols; read-out: T. Brucei GI EC50.
Turning to `COc1nc2ccccc2cc1-c1cnc(C2CN(CC3CCOC3)CCN2C(=O)Cn2ccnc2-c2ccccc2)[nH]1` (centres unmarked), the 50% effective concentration (EC50) was in the range of 1010 to 5000 nM. Still for that read-out and setting: as for `COc1ccc2c(c1)C(CC(=O)N1CCN(CCc3ccccc3)CC1c1ncc(-c3ccc4ccccc4c3)[nH]1)C(=O)N2` (centres unmarked), the figure is 510 to 1000 nM; as for `COc1nc2ccccc2cc1-c1cnc(C2CN(Cc3cn(C)nn3)CCN2C(=O)Cc2c(C)[nH]c3ccc(F)cc23)[nH]1` (centres unmarked), 100 to 500 nM; as for `COc1nc2ccccc2cc1-c1cnc([C@@H]2CCN(Cc3ccn(C)n3)CCN2C(=O)[C@](OC)(c2ccccc2)C(F)(F)F)[nH]1`, 1010 to 5000 nM. Same read-out and setting: to `COc1ccc2nc(C)n(CC(=O)N3CCN(C4CCS(=O)(=O)CC4)C[C@H]3c3ncc(-c4cc5ccccc5nc4OC)[nH]3)c2c1` belongs 510 to 1000 nM; to `COc1ccc2[nH]c(C)c(CC(=O)N3CCN(Cc4ccn(C)n4)CCC3c3ncc(-c4cc5ccccc5nc4OC)[nH]3)c2c1` (centres unmarked) [2-(5-methoxy-2-methyl-1H-indol-3-yl)-1-(7-(5-(2-methoxyquinolin-3-yl)-1H-imidazol-2-yl)-4-((1-methyl-1H-pyrazol-3-yl)methyl)-1,4-diazepan-1-yl)ethan-1-one], < 100 nM; to `COc1ccc2nc(C)n(CC(=O)N3CCN(CC4CCOC4)C[C@H]3c3ncc(-c4cnc5ccccc5c4)[nH]3)c2c1` (some centres unmarked), 510 to 1000 nM.

`COc1ccc2nc(C)n(CC(=O)N3CCN(C4CCOCC4)C[C@H]3c3ncc(-c4cc5ccccc5nc4OC)[nH]3)c2c1`: the half-maximal effective concentration (EC50) lay in the range of 100 to 500 nM. Take `COc1nc2ccccc2cc1-c1cnc([C@@H]2CN(C3CCOCC3)CCN2C(=O)Cn2c(C(F)(F)F)nc3ccccc32)[nH]1` [(S)-1-(2-(5-(2-methoxyquinolin-3-yl)-1H-imidazol-2-yl)-4-(tetrahydro-2H-pyran-4-yl)piperazin-1-yl)-2-(2-(trifluoromethyl)-1H-benzo[d]imidazol-1-yl)ethan-1-one]: the EC50 is < 100 nM. The same measure, in the same setting: to `COc1ccc2cc(C)n(CC(=O)N3CCOCC3c3ncc(-c4cc5ccccc5nc4OC)[nH]3)c2c1` (centres unmarked) belongs 510 to 1000 nM; to `COc1ccc2nc(C(F)(F)F)n(CC(=O)N3CC[C@@H](NCc4nccs4)C[C@H]3c3ncc(-c4cc5ccccc5nc4OC)[nH]3)c2c1`, 100 to 500 nM. For `CCC(=O)CCCN1CCN(S(=O)(=O)c2ccccc2)C(c2ncc(-c3ccc4ccccc4c3)[nH]2)C1` (centres unmarked) [6-(3-(5-(naphthalen-2-yl)-1H-imidazol-2-yl)-4-(phenylsulfonyl)piperazin-1-yl)hexan-3-one], the concentration for a half-maximal effect (EC50) lay in the range of 1010 to 5000 nM. Same read-out and setting: to `COc1ccc2cc(C)n(CC(=O)N3CCS(=O)(=O)CC3c3ncc(-c4cc5ccccc5nc4OC)[nH]3)c2c1` (centres unmarked) belongs 510 to 1000 nM. As for `COc1ccc2nc(C)n(CC(=O)N3CCN(Cc4nncn4C)C[C@H]3c3ncc(-c4cc5ccccc5nc4OC)[nH]3)c2c1` [(S)-2-(6-methoxy-2-methyl-1H-benzo[d]imidazol-1-yl)-1-(2-(5-(2-methoxyquinolin-3-yl)-1H-imidazol-2-yl)-4-((4-methyl-4H-1,2,4-triazol-3-yl)methyl)piperazin-1-yl)ethan-1-one], the EC50 was 510 to 1000 nM.

Take `COc1ccc2nc(C)n(CC(=O)N3CCCCC3c3ncc(-c4cc5ccccc5nc4OC)[nH]3)c2c1` (centres unmarked): the EC50 fell in the range of 100 to 500 nM. Same read-out and setting: as for `COc1nc2ccccc2cc1-c1cnc(C2CN(CC3CCOC3)CCN2C(=O)Cn2c(C)nc3cc(F)c(F)cc32)[nH]1` (centres unmarked), the figure is 100 to 500 nM. With `COc1nc2ccccc2cc1-c1cnc(C2CN(C(=O)c3cnn(C(C)C)c3)CCN2C(=O)Cc2c(C)[nH]c3ccc(F)cc23)[nH]1` (centres unmarked), the EC50 lay within 1010 to 5000 nM.

Regarding `COc1nc2ccccc2cc1-c1cnc(C2CN(Cc3ccccc3)CCN2C(=O)CC2=C(C)NC3C=CC=CC23)[nH]1` (centres unmarked), the EC50 was 100 to 500 nM. Still for that read-out and setting: as for `COc1nc2ccccc2cc1-c1cnc(C2CN(CC3CCCC3)CCN2C(=O)Cc2c(C)[nH]c3ccc(F)cc23)[nH]1` (centres unmarked), the figure is 100 to 500 nM; as for `COc1nc2ccccc2cc1-c1cnc([C@@H]2CN(CC3CCOC3)CCN2C(=O)Cc2noc3ccc(F)cc23)[nH]1` (some centres unmarked), 1010 to 5000 nM. In the case of `COc1nc2ccccc2cc1-c1cnc(C2CN(CC3CCOC3)CCN2C(=O)Cc2cnc3ccccn23)[nH]1` (centres unmarked), the concentration giving a half-maximal response (EC50) was 1010 to 5000 nM. Same read-out and setting: to `COc1nc2ccccc2cc1-c1cnc([C@@H]2CN(CC3CCOC3)CCN2C(=O)Cn2c(C)nc3cncnc32)[nH]1` (some centres unmarked) belongs 100 to 500 nM. Same read-out and setting: as for `COc1nc2ccccc2cc1-c1cnc(C2CS(=O)(=O)CCN2C(=O)Cc2c(C)[nH]c3ccc(F)cc23)[nH]1` (centres unmarked) [2-(5-fluoro-2-methyl-1H-indol-3-yl)-1-(3-(5-(2-methoxyquinolin-3-yl)-1H-imidazol-2-yl)-1,1-dioxidothiomorpholino)ethan-1-one], the figure is 100 to 500 nM. Same read-out and setting: to `COc1ccc2nc(C)n(CC(=O)N3CCN(CC4CCOC4)C[C@H]3c3ncc(-c4cc5ccccc5[nH]4)[nH]3)c2c1` (some centres unmarked) belongs 1010 to 5000 nM.

Turning to `COc1nc2ccccc2cc1-c1cnc(C2CN(CC3CCOC3)CCN2C(=O)Cn2nc(C)c3ccccc3c2=O)[nH]1` (centres unmarked), the EC50 fell in the range of 510 to 1000 nM. On the same count and under the same terms, as for `COc1ccc2nc(C(F)(F)F)n(CC(=O)N3CCN(CCn4cccn4)CCC3c3ncc(-c4cc5ccccc5nc4OC)[nH]3)c2c1` (centres unmarked) [1-(4-(2-(1H-pyrazol-1-yl)ethyl)-7-(5-(2-methoxyquinolin-3-yl)-1H-imidazol-2-yl)-1,4-diazepan-1-yl)-2-(6-methoxy-2-(trifluoromethyl)-1H-benzo[d]imidazol-1-yl)ethan-1-one], the figure is < 100 nM. In the case of `COc1ccc2nc(C(F)(F)F)n(CC(=O)N3CC[C@H](N(C)C4CCOC4)C[C@H]3c3ncc(-c4cc5ccccc5nc4OC)[nH]3)c2c1` (stereo partly drawn) [2-(6-methoxy-2-(trifluoromethyl)-1H-benzo[d]imidazol-1-yl)-1-((2S,4S)-2-(5-(2-methoxyquinolin-3-yl)-1H-imidazol-2-yl)-4-(methyl(tetrahydrofuran-3-yl)amino)piperidin-1-yl)ethan-1-one], the EC50 is < 100 nM.

With `COc1ccc2nc(C(F)(F)F)n(CC(=O)N3CC[C@H](NCC4CCOC4)C[C@H]3c3ncc(-c4cc5ccccc5nc4OC)[nH]3)c2c1` (stereo partly drawn) [2-(6-methoxy-2-(trifluoromethyl)-1H-benzo[d]imidazol-1-yl)-1-((2S,4S)-2-(5-(2-methoxyquinolin-3-yl)-1H-imidazol-2-yl)-4-(((tetrahydrofuran-3-yl)methyl)amino)piperidin-1-yl)ethan-1-one], the EC50 was < 100 nM.

Take `COc1ccc2nc(C)n(CC(=O)N3CCN(C[C@@H]4CCOC4)CC3c3ncc(-c4ccc(-c5ccccc5)nc4OC)[nH]3)c2c1` (some centres unmarked): the EC50 was in the range of 1010 to 5000 nM. Turning to `COc1ccc2nc(C(F)(F)F)n(CC(=O)N3CCN(C4CCS(=O)(=O)CC4)C[C@H]3c3ncc(-c4cc5ccccc5nc4OC)[nH]3)c2c1` [(S)-1-(4-(1,1-dioxidotetrahydro-2H-thiopyran-4-yl)-2-(5-(2-methoxyquinolin-3-yl)-1H-imidazol-2-yl)piperazin-1-yl)-2-(6-methoxy-2-(trifluoromethyl)-1H-benzo[d]imidazol-1-yl)ethan-1-one], the EC50 was < 100 nM. For the compound `COc1nc2ccccc2cc1-c1cnc(C2CN(Cc3cnccn3)CCN2C(=O)Cc2c(C)[nH]c3ccc(F)cc23)[nH]1` (centres unmarked) [2-(5-fluoro-2-methyl-1H-indol-3-yl)-1-(2-(5-(2-methoxyquinolin-3-yl)-1H-imidazol-2-yl)-4-(pyrazin-2-ylmethyl)piperazin-1-yl)ethan-1-one], the EC50 is < 100 nM. Still for that read-out and setting: to `COc1ccc2[nH]c(C)c(CC(=O)N3CCN(C)CCC3c3ncc(-c4ccc5ccccc5c4)[nH]3)c2c1` (centres unmarked) [2-(5-methoxy-2-methyl-1H-indol-3-yl)-1-(4-methyl-7-(5-(naphthalen-2-yl)-1H-imidazol-2-yl)-1,4-diazepan-1-yl)ethan-1-one] belongs 100 to 500 nM; to `COc1nc2ccccc2cc1-c1cnc(C2CN(CC3CCOC3)CCN2C(=O)Cn2c(=O)ncc3ccccc32)[nH]1` (centres unmarked), 1010 to 5000 nM. Same read-out and setting: to `COc1nc2ccccc2cc1-c1cnc(C2CN(C(=O)C3CCOC3)CCN2C(=O)Cc2c(C)[nH]c3ccc(F)cc23)[nH]1` (centres unmarked) [2-(5-fluoro-2-methyl-1H-indol-3-yl)-1-(2-(5-(2-methoxyquinolin-3-yl)-1H-imidazol-2-yl)-4-(tetrahydrofuran-3-carbonyl)piperazin-1-yl) ethan-1-one] belongs 1010 to 5000 nM; to `COc1ccc2nc(C(F)(F)F)n(CC(=O)N3CCN(Cc4cn(C)nn4)CCC3c3ncc(-c4cc5ccccc5nc4OC)[nH]3)c2c1` (centres unmarked), 100 to 500 nM.

Regarding `CCC(=O)CCCN1CCN(C(=O)Cc2c[nH]c3ccccc23)[C@H](c2ncc(-c3ccc4ccccc4c3)[nH]2)C1`, the EC50 lay in the range of 100 to 500 nM. On the same count and under the same terms, as for `COc1nc2ccccc2cc1-c1cnc([C@@H]2CN(Cc3cncc(F)c3)CCN2C(=O)Cn2c(C(F)(F)F)nc3ccccc32)[nH]1` [(S)-1-(4-((5-fluoropyridin-3-yl)methyl)-2-(5-(2-methoxyquinolin-3-yl)-1H-imidazol-2-yl)piperazin-1-yl)-2-(2-(trifluoromethyl)-1H-benzo[d]imidazol-1-yl)ethan-1-one], the figure is < 100 nM.

With `COc1nc2ccccc2cc1-c1cnc(C2CN(CC3CCOC3)CCN2C(=O)Cc2nc(-c3ccccc3)oc2C)[nH]1` (centres unmarked), the EC50 lay within 1010 to 5000 nM. The same measure, in the same setting: to `COc1nc2ccccc2cc1-c1cnc(C2CN(CC3CCOC3)CCN2C(=O)Cc2ccc(N3CCNC3=O)cc2)[nH]1` (centres unmarked) belongs 1010 to 5000 nM; to `CNC(=O)CCCN1CCN(C(=O)Cc2c(C)[nH]c3ccc(OC)cc23)C(c2ncc(-c3ccc4ccccc4c3)[nH]2)C1` (centres unmarked), 100 to 500 nM; to `COc1nc2ccccc2cc1-c1cnc(C2CN(CC3CCOC3)CCN2C(=O)c2nccc3ccccc23)[nH]1` (centres unmarked), 1010 to 5000 nM.

Regarding `COC(=O)CCCN1CCN(C(=O)Cc2c(C)[nH]c3ccc(OC)cc23)C(c2ncc(-c3ccc4ccccc4c3)[nH]2)C1` (centres unmarked), the EC50 was 100 to 500 nM.

Consider `COc1ccc2nc(C(F)(F)F)n(CC(=O)N3CCOCC3c3ncc(-c4cc5ccccc5nc4OC)[nH]3)c2c1` (centres unmarked), for which the 50% effective concentration (EC50) fell in the range of 100 to 500 nM.
